Source: patent publication US20260285875A1, “INHIBITORS OF PARG” (858 Therapeutics, Inc., priority 2023, published 2026)

biological target: T1, cellular PARG (Homo sapiens, UniProt Q86W56); experiment: Nuclear PAR accumulation assay (immunofluorescence high-content imaging, MMS-treated HeLa cells); format: cell-based; conditions: 1 hour compound then MMS 50 μg/mL for an additional hour
T1 construct: endogenous in cells; host or cells: HeLa
Summary of the method: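 HeLa cells pretreated with compound for 1 h at 37° C, then given 50 μg/mL MMS for another hour. After methanol fixation, PAR was immunostained with DAPI nuclear counterstain; per-nucleus intensity and percent PAR-positive cells were imaged at 20× (≥1,000 cells/well). IC50 from four-parameter logistic fit.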

T1 sequence (Q86W56 whole entry): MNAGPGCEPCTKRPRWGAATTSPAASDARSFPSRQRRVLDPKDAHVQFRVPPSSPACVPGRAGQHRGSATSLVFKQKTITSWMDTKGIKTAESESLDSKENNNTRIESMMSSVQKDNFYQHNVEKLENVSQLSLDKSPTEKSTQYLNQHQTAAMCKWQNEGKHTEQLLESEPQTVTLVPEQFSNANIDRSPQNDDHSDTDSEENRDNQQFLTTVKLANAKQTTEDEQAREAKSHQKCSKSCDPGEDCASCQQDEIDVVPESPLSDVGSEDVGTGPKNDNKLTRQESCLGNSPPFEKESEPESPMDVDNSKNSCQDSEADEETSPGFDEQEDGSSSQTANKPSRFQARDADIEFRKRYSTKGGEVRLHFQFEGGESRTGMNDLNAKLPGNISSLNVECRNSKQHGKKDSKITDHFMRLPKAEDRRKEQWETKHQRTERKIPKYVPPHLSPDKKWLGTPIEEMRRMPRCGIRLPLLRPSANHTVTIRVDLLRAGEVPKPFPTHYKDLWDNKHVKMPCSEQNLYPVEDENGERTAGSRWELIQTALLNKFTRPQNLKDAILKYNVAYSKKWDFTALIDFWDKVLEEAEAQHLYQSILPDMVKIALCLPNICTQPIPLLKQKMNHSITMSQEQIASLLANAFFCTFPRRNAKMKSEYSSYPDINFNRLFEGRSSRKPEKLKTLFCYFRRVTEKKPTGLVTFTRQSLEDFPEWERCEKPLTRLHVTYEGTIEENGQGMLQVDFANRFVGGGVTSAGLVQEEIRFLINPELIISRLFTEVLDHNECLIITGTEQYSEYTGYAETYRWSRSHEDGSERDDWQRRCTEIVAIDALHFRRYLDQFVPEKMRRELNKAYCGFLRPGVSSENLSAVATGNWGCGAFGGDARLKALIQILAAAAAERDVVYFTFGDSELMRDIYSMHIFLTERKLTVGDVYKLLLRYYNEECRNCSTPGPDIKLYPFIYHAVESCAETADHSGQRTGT

IC50 [nM]	SMILES
< 100	CCN1C(=O)c2cc(S(=O)(=O)NC3(C)CC3)ccc2N2C1=NC[C@H]2C#Cc1cc(C2CC2)nn1C [Example 228, (R)-1-((3-cyclopropyl-1-methyl-1H-pyrazol-5-yl)ethynyl)-4-ethyl-N-(1-methylcyclopropyl)-5-oxo-1,2,4,5-tetrahydroimidazo[1,2-a]quinazoline-7-sulfonamide]
100 to 1000	CN1CCN(C2(C#C[C@@H]3CN=C4N(C)C(=O)c5cc(S(=O)(=O)NC6(C)CC6)ccc5N43)CC2)CC1 [Example 229, (R)-4-methyl-N-(1-methylcyclopropyl)-1-((1-(4-methylpiperazin-1-yl)cyclopropyl)ethynyl)-5-oxo-1,2,4,5-tetrahydroimidazo[1,2-a]quinazoline-7-sulfonamide]
< 100	C[C@@H]1CN=C2N(Cc3cn(C)nc3C3CC3)C(=O)c3cc(S(=O)(=O)NC4(C)CC4)ccc3N21 [Example 230, (R)-4-((3-cyclopropyl-1-methyl-1H-pyrazol-4-yl)methyl)-1-methyl-N-(1-methylcyclopropyl)-5-oxo-1,2,4,5-tetrahydroimidazo[1,2-a]quinazoline-7-sulfonamide]
< 100	[2H]C([2H])(c1cnn(C)c1)N1C(=O)c2cc(S(=O)(=O)NC3(C)CC3)ccc2N2C1=NC[C@H]2C#Cc1cc(C)nn1C [Example 231, (R)-1-((1,3-dimethyl-1H-pyrazol-5-yl)ethynyl)-4-((1-methyl-1H-pyrazol-4-yl)methyl-d2)-N-(1-methylcyclopropyl)-5-oxo-1,2,4,5-tetrahydroimidazo[1,2-a]quinazoline-7-sulfonamide]
< 100	[2H]C([2H])(c1cnn(C)c1)N1C(=O)c2cc(S(=O)(=O)NC3(C)CC3)ccc2N2C1=NC[C@H]2C#Cc1cn(C)nc1C [Example 232, (R)-1-((1,3-dimethyl-1H-pyrazol-4-yl)ethynyl)-4-((1-methyl-1H-pyrazol-4-yl)methyl-d2)-N-(1-methylcyclopropyl)-5-oxo-1,2,4,5-tetrahydroimidazo[1,2-a]quinazoline-7-sulfonamide]
< 100	C[C@@H]1CN=C2N(Cc3ccc(C#N)nc3)C(=O)c3cc(S(=O)(=O)NC4(C)CC4)ccc3N21 [Example 233, (R)-4-((6-cyanopyridin-3-yl)methyl)-1-methyl-N-(1-methylcyclopropyl)-5-oxo-1,2,4,5-tetrahydroimidazo[1,2-a]quinazoline-7-sulfonamide]
< 100	[2H]C([2H])(c1cnn(C)c1)N1C(=O)c2cc(S(=O)(=O)NC3(C)CC3)c(N)cc2N2C1=N[C@H]1CCC[C@H]12 [Example 234, (7aS,10aR)-2-amino-6-((1-methyl-1H-pyrazol-4-yl)methyl-d2)-N-(1-methylcyclopropyl)-5-oxo-6,7a,8,9,10,10a-hexahydro-5H-cyclopenta[4,5]imidazo[1,2-a]quinazoline-3-sulfonamide]
100 to 1000	C[C@@H]1C[C@H](C)N2C(=N1)N(Cc1cnn(C)c1)C(=O)c1cc(S(=O)(=O)NC3(C)CC3)ccc12 [Example 235, (1S,3R)-1,3-dimethyl-5-((1-methyl-1H-pyrazol-4-yl)methyl)-N-(1-methylcyclopropyl)-6-oxo-2,3,5,6-tetrahydro-1H-pyrimido[1,2-a]quinazoline-8-sulfonamide]
< 100	C[C@@H]1C[C@@H](C)N2C(=N1)N(Cc1cnn(C)c1)C(=O)c1cc(S(=O)(=O)NC3(C)CC3)ccc12 [Example 236, (1R,3R)-1,3-dimethyl-5-((1-methyl-1H-pyrazol-4-yl)methyl)-N-(1-methylcyclopropyl)-6-oxo-2,3,5,6-tetrahydro-1H-pyrimido[1,2-a]quinazoline-8-sulfonamide]
1000 to 10000	[2H]C([2H])(c1cnn(C)c1)N1C(=O)c2cc(S(=O)(=O)NC3(CO)CC3)ccc2N2C1=NC[C@H]2C [Example 237, (R)-N-(1-(hydroxymethyl)cyclopropyl)-1-methyl-4-((1-methyl-1H-pyrazol-4-yl)methyl-d2)-5-oxo-1,2,4,5-tetrahydroimidazo[1,2-a]quinazoline-7-sulfonamide]
< 100	Cc1cc(C#C[C@@H]2CN=C3N(Cc4cnn(C)c4)C(=O)c4cc(S(=O)(=O)NC5(C)CC5)ccc4N32)ccn1 [Example 238, (R)-4-((1-methyl-1H-pyrazol-4-yl)methyl)-N-(1-methylcyclopropyl)-1-((2-methylpyridin-4-yl)ethynyl)-5-oxo-1,2,4,5-tetrahydroimidazo[1,2-a]quinazoline-7-sulfonamide]
100 to 1000	C[C@@H]1CN=C2N(Cc3ccnc(C#N)c3)C(=O)c3cc(S(=O)(=O)NC4(C)CC4)ccc3N21 [Example 239, (R)-4-((2-cyanopyridin-4-yl)methyl)-1-methyl-N-(1-methylcyclopropyl)-5-oxo-1,2,4,5-tetrahydroimidazo[1,2-a]quinazoline-7-sulfonamide]
100 to 1000	[2H]C([2H])(c1cnn(C)c1)N1C(=O)c2cc(S(=O)(=O)NC3(C)CC3)c(SC)cc2N2C1=N[C@H]1CCC[C@H]12 [Example 240, (7aS,10aR)-6-((1-methyl-1H-pyrazol-4-yl)methyl-d2)-N-(1-methylcyclopropyl)-2-(methylthio)-5-oxo-6,7a,8,9,10,10a-hexahydro-5H-cyclopenta[4,5]imidazo[1,2-a]quinazoline-3-sulfonamide]
< 100	[2H]C([2H])(c1cnn(C)c1)N1C(=O)c2cc(S(=O)(=O)NC3(C)CC3)ccc2N2C1=NC[C@H]2C#CC1(N(CC)CC)CC1 [Example 241, (R)-1-((1-(diethylamino)cyclopropyl)ethynyl)-4-((1-methyl-1H-pyrazol-4-yl)methyl-d2)-N-(1-methylcyclopropyl)-5-oxo-1,2,4,5-tetrahydroimidazo[1,2-a]quinazoline-7-sulfonamide]
< 100	[2H]C([2H])(c1cnn(C)c1)N1C(=O)c2cc(S(=O)(=O)NC3(C)CC3)ccc2N2C1=NC[C@H]2C#Cc1ncccc1C [Example 242, (R)-4-((1-methyl-1H-pyrazol-4-yl)methyl-d2)-N-(1-methylcyclopropyl)-1-((3-methylpyridin-2-yl)ethynyl)-5-oxo-1,2,4,5-tetrahydroimidazo[1,2-a]quinazoline-7-sulfonamide]
< 100	C[C@@H]1CN=C2N(Cc3cn(C)nc3CC#N)C(=O)c3cc(S(=O)(=O)NC4(C)CC4)ccc3N21 [Example 243, (R)-4-((3-(cyanomethyl)-1-methyl-1H-pyrazol-4-yl)methyl)-1-methyl-N-(1-methylcyclopropyl)-5-oxo-1,2,4,5-tetrahydroimidazo[1,2-a]quinazoline-7-sulfonamide]
< 100	[2H]C([2H])(c1cnn(C)c1)N1C(=O)c2cc(S(=O)(=O)NC3(C)CC3)ccc2N2C1=NC[C@H]2C#CC1(N(C)CCO)CC1 [Example 244, (R)-1-((1-((2-hydroxyethyl)(methyl)amino)cyclopropyl)ethynyl)-4-((1-methyl-1H-pyrazol-4-yl)methyl-d2)-N-(1-methylcyclopropyl)-5-oxo-1,2,4,5-tetrahydroimidazo[1,2-a]quinazoline-7-sulfonamide]
< 100	CCN1C(=O)c2cc(S(=O)(=O)NC3(C)CC3)ccc2N2C1=NC[C@H]2C#Cc1c(F)cnn1C [Example 245, (R)-4-ethyl-1-((4-fluoro-1-methyl-1H-pyrazol-5-yl)ethynyl)-N-(1-methylcyclopropyl)-5-oxo-1,2,4,5-tetrahydroimidazo[1,2-a]quinazoline-7-sulfonamide]
< 100	[2H]C([2H])(c1cnn(C)c1)N1C(=O)c2cc(S(=O)(=O)NC3(C)CC3)ccc2N2C1=NC[C@H]2C#Cc1cncnc1 [Example 246, (R)-4-((1-methyl-1H-pyrazol-4-yl)methyl-d2)-N-(1-methylcyclopropyl)-5-oxo-1-(pyrimidin-5-ylethynyl)-1,2,4,5-tetrahydroimidazo[1,2-a]quinazoline-7-sulfonamide]
100 to 1000	C[C@@H]1CN=C2N(Cc3cccnc3CC#N)C(=O)c3cc(S(=O)(=O)NC4(C)CC4)ccc3N21 [Example 247, (R)-4-((2-(cyanomethyl)pyridin-3-yl)methyl)-1-methyl-N-(1-methylcyclopropyl)-5-oxo-1,2,4,5-tetrahydroimidazo[1,2-a]quinazoline-7-sulfonamide]
100 to 1000	Cn1cc(CN2C(=O)c3cc(S(=O)(=O)NC4(C)CC4)ccc3N3C2=NC[C@H]3C#C[C@H]2CCCN2)cn1 [Example 248, (R)-4-((1-methyl-1H-pyrazol-4-yl)methyl)-N-(1-methylcyclopropyl)-5-oxo-1-(((R)-pyrrolidin-2-yl)ethynyl)-1,2,4,5-tetrahydroimidazo[1,2-a]quinazoline-7-sulfonamide]
< 100	[2H]C([2H])(c1cnn(C)c1)N1C(=O)c2cc(S(=O)(=O)NC3(C)CC3)ccc2N2C1=NC[C@H]2C#Cc1nccnc1OC [Example 249, (R)-1-((3-methoxypyrazin-2-yl)ethynyl)-4-((1-methyl-1H-pyrazol-4-yl)methyl-d2)-N-(1-methylcyclopropyl)-5-oxo-1,2,4,5-tetrahydroimidazo[1,2-a]quinazoline-7-sulfonamide]
< 100	[2H]C([2H])(c1cnn(C)c1)N1C(=O)c2cc(S(=O)(=O)NC3(C)CC3)ccc2N2C1=NC[C@H]2C#Cc1cccnc1N [Example 250, (R)-1-((2-aminopyridin-3-yl)ethynyl)-4-((1-methyl-1H-pyrazol-4-yl)methyl-d2)-N-(1-methylcyclopropyl)-5-oxo-1,2,4,5-tetrahydroimidazo[1,2-a]quinazoline-7-sulfonamide]
< 100	[2H]C([2H])(c1cnn(C)c1)N1C(=O)c2cc(S(=O)(=O)NC3(C)CC3)ccc2N2C1=NC[C@H]2C#Cc1ncc(C)nc1C [Example 251, (R)-1-((3,5-dimethylpyrazin-2-yl)ethynyl)-4-((1-methyl-1H-pyrazol-4-yl)methyl-d2)-N-(1-methylcyclopropyl)-5-oxo-1,2,4,5-tetrahydroimidazo[1,2-a]quinazoline-7-sulfonamide]
